Measured values reported in patent US10889579B2, “Thiazine derivatives as β-secretase inhibitors and methods of use” (AMGEN INC., priority 2016, dated 2021).

Experiments:
BACE1 [1] = biological target: T1, BACE1 (Homo sapiens (Human), UniProt P56817); assay: In vitro BACE1 cell-based assay (Aβ40 in conditioned medium, HTRF); conditions: Aβ40 in conditioned medium of cells stably expressing APP, 24 h
Description: In Vitro BACE1 Cell-Based Assay
The cell-based assay measures inhibition or reduction of Aβ40 in conditioned medium of test compound treated cells expressing amyloid precursor protein. Cells stably expressing Amyloid Precursor Protein (APP) were plated at a density of 45K cells/well in 384 well plates (Corning/BioCoat 354663). The test compounds were then added to cells in 22-point dose response concentrations with the starting concentration being 62.5 μM. The compounds were diluted from stock solutions in DMSO and the final DMSO concentration of the test compounds on cells was 0.625%. The cells were cultivated overnight at 37° C. and 5% CO2 in DMEM supplemented with 10% FBS. After 24 h of incubation with the test compounds, the conditioned media was collected and the Aβ40 levels were determined using HTRF (Homogeneous Time Resolved Fluorescence). The IC50 of the compound was calculated from the percent of control or percent inhibition of Aβ 40 as a function of the concentration of the test compound.
The HTRF to detect Aβ40 was performed in 384 well plates (Costar 3658). The antibody pair that were used to detect Aβ 40 from cell supernatants were ConfAb40 antibody (Amgen in-house) and biotinylated 6E10 (BIOLEGEND). As an alternative to ConfAb40, a commercially available antibody, Anti-beta Amyloid 1-40 antibody [BDI350] from Abcam, Cambridge, Mass. 02139-1517 (Product code: ab20068), may be used in this assay. The concentrations were 0.35 μg/mL of ConfAb40 antibody and 1.33 μg/mL of 6E10-biotinylated antibody, as well as 4.5 μg/mL of Streptavidin Allophycocyanin Conjugate (ThermoFisher Scientific) in HTRF Buffer (1M Hepes pH 7.5, 1M NaCL, 1% BSA, 0.5% Tween 20).
The conditioned media was incubated with above antibodies and Streptavidin Allophycocyanin Conjugate for 30-60 minutes at 23° C. The final readout was performed on Envision from PerkinElmer.
Target sequence in this assay (P56817 46-501, species assumed): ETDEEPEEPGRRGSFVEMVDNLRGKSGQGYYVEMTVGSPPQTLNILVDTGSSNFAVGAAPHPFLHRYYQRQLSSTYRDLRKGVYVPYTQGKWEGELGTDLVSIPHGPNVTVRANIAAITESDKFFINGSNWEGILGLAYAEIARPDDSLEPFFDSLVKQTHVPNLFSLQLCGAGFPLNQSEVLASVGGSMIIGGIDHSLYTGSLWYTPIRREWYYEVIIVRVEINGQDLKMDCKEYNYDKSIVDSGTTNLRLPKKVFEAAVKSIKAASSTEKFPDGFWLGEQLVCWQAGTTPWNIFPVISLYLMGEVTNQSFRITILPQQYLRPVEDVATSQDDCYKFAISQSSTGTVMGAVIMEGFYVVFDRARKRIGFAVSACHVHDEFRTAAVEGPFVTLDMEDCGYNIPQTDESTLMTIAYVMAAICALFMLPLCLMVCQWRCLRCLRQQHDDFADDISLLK

Recombinant CatD = Recombinant CatD (Homo sapiens (Human), UniProt P07339); assay: In vitro enzymatic Cathepsin D (CatD) FRET assay; type: biochemical; conditions: pH 3.5, 1 h pre-incubation, read-out: Cat D Enzyme IC50
Chain of Recombinant CatD (P07339 65-412): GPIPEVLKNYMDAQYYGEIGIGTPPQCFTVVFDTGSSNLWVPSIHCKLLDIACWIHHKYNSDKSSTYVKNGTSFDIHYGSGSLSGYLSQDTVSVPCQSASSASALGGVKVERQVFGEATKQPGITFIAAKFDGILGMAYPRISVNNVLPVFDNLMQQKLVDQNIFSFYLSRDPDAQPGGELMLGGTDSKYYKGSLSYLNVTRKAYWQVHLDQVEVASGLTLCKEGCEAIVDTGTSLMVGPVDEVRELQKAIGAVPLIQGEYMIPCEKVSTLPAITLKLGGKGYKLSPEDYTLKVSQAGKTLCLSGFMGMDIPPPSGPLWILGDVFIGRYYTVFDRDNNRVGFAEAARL
Description: In Vitro Enzymatic Cathepsin D (CatD) FRET Assay Recombinant CatD was expressed in CHO cells. The assay buffer for CatD was 0.05 M citrate pH 3.5, 10% DMSO final, 5 mM CHAPS. The CatD enzyme (9 nM) was pre-incubated for one hour with inhibitors, typically in about luL of DMSO according to a serial dilution, is added thereto. The assays was effectively started by the addition of different FRET substrates (20 nM for CatD) and the combination was incubated for one hour. The FRET assay was terminated with by addition of tris buffer, which raises the pH to neutrality, and the fluorescence was determined. The FRET substrate was a peptide with commercially available fluorophore and quencher, on opposite sides of the CatD cleavage site. The CatD substrate peptide sequence was based on sequence #1 of Table 1 from Gulnik et al., FEBS Lett. 413(2):379-384 (1997). Proteolytic cleavage of the FRET substrate released quenching of fluorescence (CatD excitation 500 nm and emission 580 nm). The in vitro CatD FRET assay data for each of the Examples is provided in Table 2, conducted by the first procedure described above. […] Thus, with this surprising selectivity profile, the compounds provided herein are believed to minimize, reduce or completely eliminate any risk of retinal atrophy and abnormal development of the eye and of the retinal pigmented epithelium as it relates to the normal function and activity of CatD.

human recombinant BACE2 = human recombinant BACE2 (Homo sapiens (Human), UniProt Q9Y5Z0); assay: In vitro enzymatic BACE2 FRET assay; type: biochemical; conditions: pH 4.5, 1 h pre-incubation, read-out: BACE2 Enzyme IC50
Chain of human recombinant BACE2 (Q9Y5Z0 63-518): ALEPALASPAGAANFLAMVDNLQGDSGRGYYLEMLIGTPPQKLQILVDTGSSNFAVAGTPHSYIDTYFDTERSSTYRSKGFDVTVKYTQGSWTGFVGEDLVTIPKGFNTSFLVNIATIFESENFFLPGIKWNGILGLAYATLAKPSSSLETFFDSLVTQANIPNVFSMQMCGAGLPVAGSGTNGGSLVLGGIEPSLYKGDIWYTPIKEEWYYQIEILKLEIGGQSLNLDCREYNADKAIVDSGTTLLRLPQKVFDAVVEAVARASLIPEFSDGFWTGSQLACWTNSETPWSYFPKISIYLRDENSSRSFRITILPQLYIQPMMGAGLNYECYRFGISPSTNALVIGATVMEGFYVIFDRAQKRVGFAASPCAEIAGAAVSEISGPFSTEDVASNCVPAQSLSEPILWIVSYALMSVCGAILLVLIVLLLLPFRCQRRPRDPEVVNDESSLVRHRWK
Description: (§1) In Vitro Enzymatic BACE1 and BACE2 FRET (Fluorescence Resonance Energy Transfer) Assays
(§2) The cDNAs for both human recombinant BACE1 and 2 with C-terminal 6-His Tags were cloned into transient protein expression vectors, which were subsequently transfected into mammalian cell lines. These recombinant proteins were further purified using Ni-NTA affinity chromatography (Qiagen). The assay buffer used in these screens was 0.05 M acetate, pH 4.5, 8% DMSO final, 100 μM genapol (which is a nonionic detergent, below its Critical Micelle Concentration). The β-secretase enzyme (0.02 nM for BACE1 and 0.64 nM for BACE2), which was pre-incubated for one hour with the test compound, typically in about luL of DMSO according to a serial dilution, was added thereto. The assay was effectively started by the addition of FRET substrate (50 nM) and the combination was incubated for one hour. The FRET assay was terminated by the addition of tris buffer, which raised the pH to neutrality, and the fluorescence was determined. The FRET substrate was a peptide with commercially available fluorophore and quencher, on opposite sides of the BACE cleavage site. The specific FRET substrate used in this assay was made by Amgen in-house. Commercially available FRET substrates, for example, the FRET substrate offered with the BACE1 FRET Assay Kit sold by ThermoFisher Scientific (Catalog Number P2985), may be used in this assay with the appropriate modifications, which are within the purview of the ability of a person with ordinary skill in the art. Proteolytic cleavage of the FRET substrate released quenching of fluorescence (excitation 488 nm and emission 590 nm).

BACE1 [2] = biological target: T1, BACE1; assay: In vitro enzymatic BACE1 FRET assay; type: biochemical; conditions: pH 4.5, 1 h pre-incubation, read-out: BACE1 Enzyme IC50
Description: as §1, §2
Target sequence in this assay (P56817 46-501): as the sequence (P56817 46-501, species assumed) above

| IC50 (BACE1 [1]) | IC50 (Recombinant CatD) | IC50 (human recombinant BACE2) | IC50 (BACE1 [2]) | Structure (SMILES) |
| --- | --- | --- | --- | --- |
| 0.522 µM | 282 µM | 0.09 µM | 0.068 µM | COC(=O)[C@@]1(C)C[C@@](C)(c2cc(/C=C(\F)c3ccc(Cl)cn3)ccc2F)N=C(N)S1 [Example 107, (4S,6R)-methyl 2-amino-4-(5-((Z)-2-(5-chloropyridin-2-yl)-2-fluorovinyl)-2-fluorophenyl)-4,6-dimethyl-5,6-dihydro-4H-1,3-thiazine-6-carboxylate] |
| 0.044 µM | 386 µM | 0.231 µM | 0.016 µM | COC(=O)[C@@]1(C)C[C@@](C)(c2cc(/C=C(\F)c3ccc(C#N)cn3)ccc2F)N=C(N)S1 [Example 108, (4S,6R)-methyl 2-amino-4-(5-((Z)-2-(5-cyanopyridin-2-yl)-2-fluorovinyl)-2-fluorophenyl)-4,6-dimethyl-5,6-dihydro-4H-1,3-thiazine-6-carboxylate] |
| 0.024 µM | 95.6 µM | 0.281 µM | 0.016 µM | COC(=O)[C@]1(C)C[C@@](C)(c2cc(/C=C(\F)c3ccc(C#N)cn3)ccc2F)N=C(N)S1 [Example 109, (4S,6S)-methyl 2-amino-4-(5-((Z)-2-(5-cyanopyridin-2-yl)-2-fluorovinyl)-2-fluorophenyl)-4,6-dimethyl-5,6-dihydro-4H-1,3-thiazine-6-carboxylate] |
| 0.002 µM | 250 µM | 0.13 µM | 0.004 µM | C[C@@]1(C(=O)N2CCOCC2)C[C@@](C)(c2cc(/C=C(\F)c3ccc(C#N)cn3)ccc2F)N=C(N)S1 [Example 110, 6-((Z)-2-(3-((4S,6S)-2-amino-4,6-dimethyl-6-(morpholine-4-carbonyl)-5,6-dihydro-4H-1,3-thiazin-4-yl)-4-fluorophenyl)-1-fluorovinyl)nicotinonitrile] |
| 0.201 µM | 300 µM | 1.47 µM | 0.098 µM | C[C@]1(C(=O)N2CCOCC2)C[C@@](C)(c2cc(/C=C(\F)c3ccc(C#N)cn3)ccc2F)N=C(N)S1 [Example 111, 6-((Z)-2-(3-((4S,6R)-2-amino-4,6-dimethyl-6-(morpholine-4-carbonyl)-5,6-dihydro-4H-1,3-thiazin-4-yl)-4-fluorophenyl)-1-fluorovinyl)nicotinonitrile] |
| 0.002 µM | 21.8 µM | 0.358 µM | 0.006 µM | C#CCOc1cnc(/C(F)=C/c2ccc(F)c([C@]3(C)C[C@@](C)(C(=O)N4CCOCC4)SC(N)=N3)c2)cn1 [Example 114, ((4S,6S)-2-amino-4-(2-fluoro-5-((Z)-2-fluoro-2-(5-(prop-2-yn-1-yloxy)pyrazin-2-yl)vinyl)phenyl)-4,6-dimethyl-5,6-dihydro-4H-1,3-thiazin-6-yl)(morpholino)methanone] |
| 0.018 µM | 40.2 µM | 0.76 µM | 0.024 µM | C#CCOc1cnc(/C(F)=C/c2ccc(F)c([C@]3(C)C[C@@](C)(C(=O)NCC(F)F)SC(N)=N3)c2)cn1 [Example 115, (4S,6S)-2-amino-N-(2,2-difluoroethyl)-4-(2-fluoro-5-((Z)-2-fluoro-2-(5-(prop-2-yn-1-yloxy)pyrazin-2-yl)vinyl)phenyl)-4,6-dimethyl-5,6-dihydro-4H-1,3-thiazine-6-carboxamide] |

More lines, now with the values behind:

| Structure (SMILES) | IC50 (BACE1 [1]) | IC50 (Recombinant CatD) | IC50 (human recombinant BACE2) | IC50 (BACE1 [2]) |
| --- | --- | --- | --- | --- |
| COC(=O)[C@H]1C[C@@](C)(c2cc(/C=C(\F)c3ccc(Cl)cn3)ccc2F)N=C(N)S1 (single isomer, unassigned) [Example 104] | 0.468 µM | 133 µM | 0.185 µM | 0.212 µM |
| COC(=O)[C@@H]1C[C@@](C)(c2cc(/C=C(\F)c3ccc(Cl)cn3)ccc2F)N=C(N)S1 (single isomer, unassigned) [Example 105] | 0.377 µM | 73.7 µM | 0.049 µM | 0.045 µM |
| C[C@@]1(c2cc(/C=C(\F)c3ccc(Cl)cn3)ccc2F)C=CSC(N)=N1 [Example 100, (S,Z)-4-(5-(2-(5-chloropyridin-2-yl)-2-fluorovinyl)-2-fluorophenyl)-4-methyl-4H-1,3-thiazin-2-amine] | 0.357 µM | 36.9 µM | 0.191 µM | 0.22 µM |
| C[C@@]1(c2cc(/C=C(\F)c3ccc(C#N)cn3)ccc2F)C=CSC(N)=N1 [Example 101, (S,Z)-6-(2-(3-(2-amino-4-methyl-4H-1,3-thiazin-4-yl)-4-fluorophenyl)-1-fluorovinyl)nicotinonitrile] | 0.049 µM | 52 µM | 0.601 µM | 0.098 µM |
| C[C@@]1(c2cc(/C=C(\F)c3ccc(Cl)cn3)ccc2F)CCSC(N)=N1 [Example 102, (S,Z)-4-(5-(2-(5-chloropyridin-2-yl)-2-fluorovinyl)-2-fluorophenyl)-4-methyl-5,6-dihydro-4H-1,3-thiazin-2-amine] | 0.148 µM | 211 µM | 0.064 µM | 0.124 µM |
| C[C@@]1(c2cc(/C=C(\F)c3ccc(C#N)cn3)ccc2F)CCSC(N)=N1 [Example 103, (S,Z)-6-(2-(3-(2-amino-4-methyl-5,6-dihydro-4H-1,3-thiazin-4-yl)-4-fluorophenyl)-1-fluorovinyl)nicotinonitrile] | 0.015 µM | 186 µM | 0.482 µM | 0.074 µM |
| COC(=O)[C@]1(C)C[C@@](C)(c2cc(/C=C(\F)c3ccc(Cl)cn3)ccc2F)N=C(N)S1 [Example 106, (4S,6S)-methyl 2-amino-4-(5-((Z)-2-(5-chloropyridin-2-yl)-2-fluorovinyl)-2-fluorophenyl)-4,6-dimethyl-5,6-dihydro-4H-1,3-thiazine-6-carboxylate] | 0.215 µM | 91 µM | 0.075 µM | 0.054 µM |
| C#CCOc1cnc(/C(F)=C/c2ccc(F)c([C@]3(C)C[C@](C)(C(=O)NC)SC(N)=N3)c2)cn1 [Example 112, (4S,6R)-2-amino-4-(2-fluoro-5-((Z)-2-fluoro-2-(5-(2-propyn-1-yloxy)-2-pyrazinyl)ethenyl)phenyl)-N,4,6-trimethyl-5,6-dihydro-4H-1,3-thiazine-6-carboxamide] | 0.011 µM | 79.9 µM | 1.3 µM | 0.037 µM |
| C#CCOc1cnc(/C(F)=C/c2ccc(F)c([C@]3(C)C[C@@](C)(C(=O)NC)SC(N)=N3)c2)cn1 [Example 113, (4S,6S)-2-amino-4-(2-fluoro-5-((Z)-2-fluoro-2-(5-(2-propyn-1-yloxy)-2-pyrazinyl)ethenyl)phenyl)-N,4,6-trimethyl-5,6-dihydro-4H-1,3-thiazine-6-carboxamide] | 0.01 µM | 178 µM | 0.835 µM | 0.022 µM |
